Data set [1] in a line: Pharmacokinetics of firocoxib in a single sow after IM injection (Example 1). The class given is in vivo, swine. The note with it: 1.5 mg/kg IM; for AUC: im, 1.5 mg/kg. From the text:
The objective of this study was to characterize the pharmacokinetic profile and transmammary delivery of firocoxib in a single sow and her litter when administered via injection to provide analgesia to piglets via the milk prior to routine piglet processing procedures. One crossbred sow and her litter sourced from the MVS-Klitz Farm was used for this project. The sow was in good health, and had not received treatment with anti-inflammatory drugs by any route. The study sow was housed in a farrowing crate. Feed and water was provided ad libitum throughout the study period. No additional medications were provided. Study animals were identified using unique duplicate ear tags and/or tattoos.
There was one treatment group in this study (refer to Table 1). The sow was given firocoxib (20 mg/mL) on Study Day 0. Firocoxib was administered via injection five (+/−2) days post-farrow, at 1.5 mg/kg IM.
Blood (sodium heparin tubes) was collected from the sow via jugular venipuncture at the following time points after drug administration via injection to the sow: 0, 1, 2, 3, 4, 6, 8, 10, 12, 24, 36 and 48 hours. The piglets had blood collected via jugular venipuncture at the following timepoints following sow drug administration via injection:
Approximately 10 mL of blood was collected from the sow at each time point, and approximately 5 mL was collected from each piglet at each time point. Following blood collection at the 48 hour time point, the sow and piglets was euthanized and disposed of per study site procedures.
Samples were stored on ice after collection and before processing. Blood samples were centrifuged for 10 minutes at 1,500 g. Collected plasma was placed in duplicate cryovials with a single-use transfer pipette and frozen at −70° C. until analysis. Cryovials were labeled with the time point and collection date.
Plasma concentrations of firocoxib were measured with high-pressure liquid chromatography-tandem mass spectrometry (Shimadzu Prominence, Shimadzu Scientific Instruments, Columbia, Md., USA). Briefly, frozen samples or standards were thawed at room temperature and rigorously vortexed once completely thawed. A 200 μL plasma sample was added to 400 μL 5% Acetic Acid and the internal standard celecoxib (20 μg/mL). The entire diluted sample was added to a 3 mL solid phase extraction tubes (OASIS) which was conditioned prior with methanol (2 ml) and equilibrated with water (2 ml). The sample was then gravity filtered through the solid phase extraction tubes and subsequently washed with 1 ml 5% acetic acid, followed by 1 ml solution of 25% methanol/75% water. Using 2×0.75 mL acetonitrile, firocoxib was eluted into a glass tube and an additional internal standard piroxicam (10 ng/μL) was added. Samples were evaporated to dryness at 48° C. under a stream of nitrogen, reconstituted with […] 25% in water and pipetted into an injection vial for LC-MS/MS analysis with the injection volume set to 10 μL. The mobile phase consisted of acetonitrile and formic acid (0.1%) at a flow rate of 0.4 mL/min. The concentration of this mobile phase began at 85% formic acid (0.1%) from 0 to 0.5 minutes with a linear gradient to 50% formic acid (0.1%) at 2.5 minutes, which was maintained until 3 minutes, followed by a linear gradient to 85% formic acid (0.1%) at 4 minutes with a total run time of 5 minutes.
The standard curve of firocoxib concentration determined using porcine plasma was linear from 0.020 to 5.0 μg/mL and was accepted when the correlation coefficient exceeded 0.99 and measured values were within 15% of the actual values. The lower limit of quantification, defined as the lowest concentration on a linear standard curve with predicted concentrations within 15% of the actual concentration, was 0.020 μg/mL.
Firocoxib time concentration data was analyzed using a commercially available computer software program (Kinetica, Thermo Scientific).

For data set [2], the system named is plasma cortisol. As to the kind of experiment: Plasma cortisol concentrations in piglets after processing (castration, tail docking, teeth clipping). The class given is in vivo, swine. The method, then:
Castration, teeth clipping, and tail docking were completed for each male piglet between the 6-h and 8-h blood collection time points. […] Castration was performed using a number 10 scalpel blade to making two vertical incisions approximately 2-3 cm long in the skin covering the testicles. The testicles were then marsupialized, and manual pressure was applied to the spermatic cord until it separated from the piglet's body. Side-cutter pliers were used to remove the tail at the 6th coccygeal vertebral body, and the canine teeth were filed flush with the gingival tissue.
To accommodate blood volume restrictions, blood samples for cortisol determination were collected from three randomly selected piglets/litter (two male and one female piglet at each time point) prior to processing (6 h after firocoxib injection in the sow) and after processing at approximately […] after drug injection in the sow. These time points corresponded to approximately 0, 2, 6, 18, 42, 66 and 90 h after processing. The blood for cortisol analysis was collected in 3-mL heparinized blood collection tubes (BD Vacutainer, Franklin Lakes, N.J.) and then centrifuged for 10 min at 1,500×g. The plasma was collected, then immediately frozen and stored at −80° C. The analyses for plasma cortisol concentrations were performed within 60 d after sample collection and within 10 consecutive days once the analyses were started. Plasma cortisol concentrations were determined using a commercial radioimmunoassay kit (CortiCote I-125, MP Biomedicals, Santa Ana, Calif.). […]
Plasma cortisol concentrations and ADG were analyzed using a nonlinear mixed-effects analysis incorporating both fixed effects and random effects (PROC GLMMIX; SAS university edition v9.04.01, SAS Institute, Cary, N.C.). […]
To account for the fact that not all the piglets were blood sampled at every time point due to blood volume restrictions in piglets, individual piglet peak cortisol concentrations (CortCmax) were calculated for each piglet after processing by visual inspection of the data. […]

Setting [3] is: female, crossbred, swine, plasma.

“Also recorded” adds a separate entry of the source. Where two headings read alike, the source gives them in different places.

Consider `CC1(C)OC(=O)C(OCC2CC2)=C1c1ccc(S(C)(=O)=O)cc1` [firocoxib], for which, in data set [1], the “% AUCextra” value amounted to 33.02%, the AUMCextra is listed as 322.22 μg/mL * (h)^2, the AUMClast is 155.18 μg/mL * (h)^2 and the AUMtot is 477.39 μg/mL * (h)^2. In data set [1], this compound returned a Clearance of 32.45 L/h, a Vss of 1390.95 L and a Vz of 1285.61 L. In data set [1] (female, crossbred, pig, plasma), the area under the curve AUC(0-t) amounted to 7460 ng·h/mL, the mean residence time (MRT) was 42.9 h, the MRT last is 20.8 h and the half-life is 27.5 h. For the same compound, the AUC in data set [1] (female, crossbred, pig, plasma, read-out: AUCextra) was found to be 3680 ng·h/mL. Also, in data set [1] (female, crossbred, pig, plasma, read-out: AUCtot), the AUC came out at 11100 ng·h/mL. In addition, in data set [1] (setting [3]), the Cmax is 287 ng/mL and the time to peak (Tmax) came out at 6 h. In data set [2] (male piglets, sow dose 2.0 mg/kg vs 0.5 mg/kg (P=0.0397) and 1.0 mg/kg (P=0.0416)), the “mean plasma cortisol concentration at 2±1 h after processing” value is recorded as “lower mean plasma cortisol concentration”. Moreover, the “peak plasma cortisol of individual piglets (CortCmax)” value in data set [2] (male piglets, 0.5 mg/kg (P=0.014) and 1.5 mg/kg (P=0.05) groups higher than 2.0 mg/kg) is reported as “significant treatment effect”. In addition, in data set [2] (piglets nursing sows given 0.5-2.0 mg/kg IM), the “plasma cortisol concentrations after processing, dose dependence” value is on record as “reduces plasma cortisol concentrations after processing in a dose-dependent manner; also recorded: dose-dependent reduction of plasma cortisol concentrations”.

For orientation: AUC(0-t) means exposure summed from dosing to a finite time, without extrapolation to infinity. A lower AUC(0-t) goes with less exposure. In general, MRT refers to the average time that molecules of a dose stay in the body. A word on the MRT last: it is a mean duration of stay, worked out from the concentration-time curve. The half-life is the time in which the quantity being followed falls by half. A lower half-life goes with fast loss. The Cmax is the peak of the concentration-time curve. The term Tmax denotes the time from dosing to the highest level.
